This assay addresses T1, ERα (Homo sapiens, UniProt P03372).
T1 construct: host or cells: MCF7
T1 sequence (P03372 1-595): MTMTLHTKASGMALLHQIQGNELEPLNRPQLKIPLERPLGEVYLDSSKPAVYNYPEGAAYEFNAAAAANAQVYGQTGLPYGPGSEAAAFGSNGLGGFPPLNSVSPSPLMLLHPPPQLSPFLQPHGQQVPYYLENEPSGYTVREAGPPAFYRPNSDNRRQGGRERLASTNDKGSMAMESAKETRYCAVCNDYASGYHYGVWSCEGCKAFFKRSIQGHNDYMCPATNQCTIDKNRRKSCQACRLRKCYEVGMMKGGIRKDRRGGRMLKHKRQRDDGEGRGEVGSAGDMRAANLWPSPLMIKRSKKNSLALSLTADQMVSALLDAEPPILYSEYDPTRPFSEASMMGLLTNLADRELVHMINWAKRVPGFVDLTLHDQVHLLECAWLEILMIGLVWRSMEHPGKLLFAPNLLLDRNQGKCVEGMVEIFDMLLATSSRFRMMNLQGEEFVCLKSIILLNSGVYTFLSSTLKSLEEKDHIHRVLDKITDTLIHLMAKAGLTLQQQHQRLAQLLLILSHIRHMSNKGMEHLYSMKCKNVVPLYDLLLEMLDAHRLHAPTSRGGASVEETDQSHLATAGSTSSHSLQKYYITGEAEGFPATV
In words: Estrogen receptor degradation activity: breast cancer cell ERα in cell western assay. Type of assay: cell-based. The note with it: MCF7 cells, 4 hours, relative to fulvestrant 0.1 μM positive control. The procedure:
Test: Estrogen Receptor Degradation Activity Said test involves measuring the in vitro degradation activity of the compounds of the Table 1a. The measurements of the degradation activities were made using a breast cancer cell ERα in cell western assay as described hereunder. MCF7 cells (ATCC) were seeded in 384 wells microplate (collagen coated) at a concentration of 10000 cells/30 μL per well in red phenol free MEM alpha medium (invitrogen) containing 5% charcoal dextran striped FBS. The following day, 9 points serial 1:5 dilution of each compound was added to the cells in 2.5p L at final concentrations ranging from 0.3-0.0000018 μM (in table 2), or 0.1 μM for fulvestrant (using as positive control). At 4 hours post compound addition the cells were fixed by adding 25 μL of formalin (final concentration 5% formalin containing 0.1% triton) for 10 minutes at room temperature and then washed twice with PBS. Then, 50 μL of LI-COR blocking buffer containing 0.1% Triton was added to plate for 30 minutes at room temperature. LI-COR blocking buffer was removed and cells were incubated overnight at cold room with 50 μL anti-ER rabbit monoclonal antibody (Thermo scientific MA1-39540) diluted at 1:1000 in LI-COR blocking buffer containing 0.1% tween-20. Wells which were treated with blocking buffer but no antibody were used as background control. Wells were washed twice with PBS (0.1% tween-20) and incubated at 37° C. for 60 minutes in LI-COR (0.1% tween-20) containing goat anti-rabbit antibody Alexa 488 (1:1000) and Syto-64 a DNA dye (2 μM final concentration). Cells were then washed 3 times in PBS and scanned in ACUMEN explorer (TTP-Labtech). Integrated intensities in the green fluorescence and red fluorescence were measured to determine the levels of ERα and DNA respectively. The degradation activity with respect to estrogen receptors in this test is given by the concentration which degrades 50% of the estrogen receptor (or IC50) in nM. The % of ERα levels decrease were determined as follows: % inhibition=100*(1−(sample−fulvestrant: DMSO−fulvestrant)).
Take `Cc1ccc(C(F)(F)F)c(C2=C(c3ccc(CC4CN(CCCF)C4)cc3)c3ccc(C(=O)O)cc3CCC2)c1.Cl` [Compound 20, 9-(4-((1-(3-fluoropropyl)azetidin-3-yl)methyl)phenyl)-8-(5-methyl-2-(trifluoromethyl)phenyl)-6,7-dihydro-5H-benzo[7]annulene-3-carboxylic acid, hydrochloride]: the “% Degradation At 0.3 μM” value worked out at 91%.
On to `O=C(O)c1ccc2c(c1)CCCC(C1CC(CO)C1)=C2c1ccc(CC2CN(CCCF)C2)cc1` (stereo not shown) [Compound 21, 9-(4-((1-(3-fluoropropyl)azetidin-3-yl)methyl)phenyl)-8-(3-(hydroxymethyl)cyclobutyl)-6,7-dihydro-5H-benzo[7]annulene-3-carboxylic acid], for which the “% Degradation At 0.3 μM” value came to 100%.
`Cl.O=C(O)c1ccc2c(c1)CCCC(c1cccc(OC(F)(F)F)c1)=C2c1ccc(CC2CN(CCCF)C2)cc1` [Compound 22, 9-(4-((1-(3-fluoropropyl)azetidin-3-yl)methyl)phenyl)-8-(3-(trifluoromethoxy)phenyl)-6,7-dihydro-5H-benzo[7]annulene-3-carboxylic acid, hydrochloride]: the “% Degradation At 0.3 μM” value worked out at 92%.
Consider `Cc1ccc(C(F)F)c(C2=C(c3ccc(CC4CN(CCCF)C4)cc3)c3ccc(C(=O)O)cc3CCC2)c1` [Compound 23, 8-(2-(difluoromethyl)-5-methylphenyl)-9-(4-((1-(3-fluoropropyl)azetidin-3-yl)methyl)phenyl)-6,7-dihydro-5H-benzo[7]annulene-3-carboxylic acid], for which the “% Degradation At 0.3 μM” value is 91%.
The same measure for `COc1ccc(C2=C(c3ccc(CC4CN(CCCF)C4)cc3)c3ccc(C(=O)O)cc3CCC2)c(C(F)F)c1` [Compound 24, 8-(2-(difluoromethyl)-4-methoxyphenyl)-9-(4-((1-(3-fluoropropyl)azetidin-3-yl)methyl)phenyl)-6,7-dihydro-5H-benzo[7]annulene-3-carboxylic acid]: 92%; for `COc1ccc(C2=C(c3ccc(CC4CN(CCCF)C4)cc3)c3ccc(C(=O)O)cc3CCC2)c(C(F)(F)F)c1.Cl` [Compound 25, 9-(4-((1-(3-fluoropropyl)azetidin-3-yl)methyl)phenyl)-8-(4-methoxy-2-(trifluoromethyl)phenyl)-6,7-dihydro-5H-benzo[7]annulene-3-carboxylic acid, hydrochloride]: 92%.
Turning to `Cc1cc(C2=C(c3ccc(CC4CN(CCCF)C4)cc3)c3ccc(C(=O)O)cc3CCC2)ccc1C(F)(F)F` [Compound 26, 9-(4-((1-(3-fluoropropyl)azetidin-3-yl)methyl)phenyl)-8-(3-methyl-4-(trifluoromethyl)phenyl)-6,7-dihydro-5H-benzo[7]annulene-3-carboxylic acid], the “% Degradation At 0.3 μM” value was determined as 93%.
The same measure for `O=C(O)c1ccc2c(c1)CCCC(c1ccc(OC(F)(F)F)cc1)=C2c1ccc(CC2CN(CCCF)C2)cc1` [Compound 27, 9-(4-((1-(3-fluoropropyl)azetidin-3-yl)methyl)phenyl)-8-(4-(trifluoromethoxy)phenyl)-6,7-dihydro-5H-benzo[7]annulene-3-carboxylic acid]: 93%; for `COc1ccc(C(F)(F)F)cc1C1=C(c2ccc(CC3CN(CCCF)C3)cc2)c2ccc(C(=O)O)cc2CCC1.Cl` [Compound 28, 9-(4-((1-(3-fluoropropyl)azetidin-3-yl)methyl)phenyl)-8-(2-methoxy-5-(trifluoromethyl)phenyl)-6,7-dihydro-5H-benzo[7]annulene-3-carboxylic acid, hydrochloride]: 80%; for `Cc1ccc(C2=C(c3ccc(CC4CN(CCCF)C4)cc3)c3ccc(C(=O)O)cc3CCC2)cc1C(F)(F)F` [Compound 29, 9-(4-((1-(3-fluoropropyl)azetidin-3-yl)methyl)phenyl)-8-(4-methyl-3-(trifluoromethyl)phenyl)-6,7-dihydro-5H-benzo[7]annulene-3-carboxylic acid]: 93%.
On to `O=C(O)c1ccc2c(c1)CCCC(c1ccccc1OC(F)(F)F)=C2c1ccc(CC2CN(CCCF)C2)cc1` [Compound 30, 9-(4-((1-(3-fluoropropyl)azetidin-3-yl)methyl)phenyl)-8-(2-(trifluoromethoxy)phenyl)-6,7-dihydro-5H-benzo[7]annulene-3-carboxylic acid], for which the “% Degradation At 0.3 μM” value worked out at 92%.
The result for `Cc1cc(C2=C(c3ccc(CC4CN(CCCF)C4)cc3)c3ccc(C(=O)O)cc3CCC2)c(C)cc1F` [Compound 31, 8-(4-fluoro-2,5-dimethylphenyl)-9-(4-((1-(3-fluoropropyl)azetidin-3-yl)methyl)phenyl)-6,7-dihydro-5H-benzo[7]annulene-3-carboxylic acid] reads 92%; that for `Cl.O=C(O)c1ccc2c(c1)CCCC(c1ccc(C(F)(F)F)cc1C1CC1)=C2c1ccc(CC2CN(CCCF)C2)cc1` [Compound 32, 8-(2-cyclopropyl-4-(trifluoromethyl)phenyl)-9-(4-((1-(3-fluoropropyl)azetidin-3-yl)methyl)phenyl)-6,7-dihydro-5H-benzo[7]annulene-3-carboxylic acid, hydrochloride], 91%; that for `Cc1cccc(C(F)(F)F)c1C1=C(c2ccc(CC3CN(CCCF)C3)cc2)c2ccc(C(=O)O)cc2CCC1` [Compound 33, 9-(4-((1-(3-fluoropropyl)azetidin-3-yl)methyl)phenyl)-8-(2-methyl-6-(trifluoromethyl)phenyl)-6,7-dihydro-5H-benzo[7]annulene-3-carboxylic acid], 91%.
The same measure for `Cc1cc(C2=C(c3ccc(CC4CN(CCCF)C4)cc3)c3ccc(C(=O)O)cc3CCC2)cc(C(F)(F)F)c1.Cl` [Compound 34, 9-(4-((1-(3-fluoropropyl)azetidin-3-yl)methyl)phenyl)-8-(3-methyl-5-(trifluoromethyl)phenyl)-6,7-dihydro-5H-benzo[7]annulene-3-carboxylic acid, hydrochloride]: 90%; for `COc1ccc(C(F)(F)F)c(C2=C(c3ccc(CC4CN(CCCF)C4)cc3)c3ccc(C(=O)O)cc3CCC2)c1` [Compound 35, 9-(4-((1-(3-fluoropropyl)azetidin-3-yl)methyl)phenyl)-8-(5-methoxy-2-(trifluoromethyl)phenyl)-6,7-dihydro-5H-benzo[7]annulene-3-carboxylic acid]: 91%; for `C=Cc1c(F)cccc1C1=C(c2ccc(CC3CN(CCCF)C3)cc2)c2ccc(C(=O)O)cc2CCC1` [Compound 36, 8-(3-fluoro-2-vinylphenyl)-9-(4-((1-(3-fluoropropyl)azetidin-3-yl)methyl)phenyl)-6,7-dihydro-5H-benzo[7]annulene-3-carboxylic acid]: 92%.
The same measure for `CCc1c(F)cccc1C1=C(c2ccc(CC3CN(CCCF)C3)cc2)c2ccc(C(=O)O)cc2CCC1` [Compound 37, 8-(2-ethyl-3-fluorophenyl)-9-(4-((1-(3-fluoropropyl)azetidin-3-yl)methyl)phenyl)-6,7-dihydro-5H-benzo[7]annulene-3-carboxylic acid]: 94%.
Regarding `CCc1c(Cl)cccc1C1=C(c2ccc(CC3CN(CCCF)C3)cc2)c2ccc(C(=O)O)cc2CCC1` [Compound 38, 8-(3-chloro-2-ethylphenyl)-9-(4-((1-(3-fluoropropyl)azetidin-3-yl)methyl)phenyl)-6,7-dihydro-5H-benzo[7]annulene-3-carboxylic acid], the “% Degradation At 0.3 μM” value is 92%.

Source of the values: US20250263390A1, “NOVEL SUBSTITUTED 6,7-DIHYDRO-5H-BENZO[7]ANNULENE COMPOUNDS AND THEIR DERIVATIVES, PROCESSES FOR THEIR PREPARATION AND THERAPEUTIC USES THEREOF” (SANOFI, priority 2022, published 2025).
